From PMC12289626, “Aloin protects against UVB-induced apoptosis by modulating integrated signaling pathways” (Frontiers in Pharmacology, 2025) come the findings set out here.

The target in assay [1] is T1, JNK1 (Homo sapiens, UniProt P45983).
T1 construct: gene MAPK8
As to the kind of experiment: ADP-Glo kinase assay with Promega JNK1 Kinase Enzyme System. The class given is biochemical.

Assay [2] concerns the target T2, p38α (Homo sapiens, UniProt Q16539).
T2 construct: gene MAPK14
As to the kind of experiment: ADP-Glo kinase assay with Promega p38α Kinase Enzyme System. The assay is classed as biochemical. A general note: In ADP-Glo the light output rises with the ADP produced.

pIC50: −log10 of the molar value.

T2 sequence (Q16539 2-360): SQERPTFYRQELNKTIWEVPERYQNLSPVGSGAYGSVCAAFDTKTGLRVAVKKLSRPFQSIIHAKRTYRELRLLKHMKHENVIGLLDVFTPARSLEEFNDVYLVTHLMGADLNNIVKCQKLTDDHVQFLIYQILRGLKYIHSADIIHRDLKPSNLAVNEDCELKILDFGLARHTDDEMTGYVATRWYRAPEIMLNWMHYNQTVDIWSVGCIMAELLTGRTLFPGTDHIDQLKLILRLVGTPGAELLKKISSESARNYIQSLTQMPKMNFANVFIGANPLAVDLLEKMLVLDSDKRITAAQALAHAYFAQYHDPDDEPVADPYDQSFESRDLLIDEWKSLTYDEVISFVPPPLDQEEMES
T1 sequence (P45983 whole entry): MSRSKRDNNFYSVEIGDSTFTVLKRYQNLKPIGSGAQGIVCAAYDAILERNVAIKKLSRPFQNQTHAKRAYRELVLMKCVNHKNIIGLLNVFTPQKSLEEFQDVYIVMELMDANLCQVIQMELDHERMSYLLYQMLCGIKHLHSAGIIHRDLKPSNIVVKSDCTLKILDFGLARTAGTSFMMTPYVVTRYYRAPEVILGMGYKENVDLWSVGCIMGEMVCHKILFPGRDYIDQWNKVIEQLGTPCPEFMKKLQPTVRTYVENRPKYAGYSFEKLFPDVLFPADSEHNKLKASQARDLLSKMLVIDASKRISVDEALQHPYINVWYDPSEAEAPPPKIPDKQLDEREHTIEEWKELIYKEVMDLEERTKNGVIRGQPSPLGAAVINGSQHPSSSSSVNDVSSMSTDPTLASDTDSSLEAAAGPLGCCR

A word on the pIC50: it is the IC50 on a negative log10 scale, so that one unit is a factor of ten. Low values mean a large IC50, high ones a small IC50. On to `O=C1c2c(O)cccc2C([C@@H]2O[C@H](CO)[C@@H](O)[C@H](O)[C@H]2O)c2cc(CO)cc(O)c21` (some centres unmarked) [aloin], for which the pIC50 in assay [1] was 2.41; in assay [2], 3.65.
